Two molecules from patent US20100284924A1, “NANO-DEVICES HAVING IMPELLERS FOR CAPTURE AND RELEASE OF MOLECULES” (The Regents of the University of California, priority 2009, published 2010) can be followed below.

Experiment [1] deals with PANC-1 cancer cells. Put plainly: Cell death assay, propidium iodide/Hoechst 33342 double-staining, confocal imaging. Format: cell-based, human. The following applies: CPT suspended in PBS, not in particles. The procedure: FIGS. 9A-9C show light-triggered delivery of the anticancer drug camptothecin (CPT) inside PANC-1 cancer cells to induce apoptosis according to an embodiment of the current invention, CPT molecules were loaded into the pores of the LAMS and a homogeneous suspension of the CPT-loaded particles (10 μg/ml) was added to the cells which were incubated in Lab-Tek chamber slides for 3 hrs in dark. The cells were then irradiated under ˜0.1 W/cm^2, 413 nm light for 1 to 10 min, again incubated in the dark for 48 hours, and double-stained with propidium iodide/Hoechst 33342 solution (1:1). FIG. 9A. CPT-loaded particles were incubated with cancer cells and illuminated for 1 (a), 3 (b), 5 (c) or 10 min (d, e, f). FIG. 9B. […]
Cell Death Assay: Cell death was also examined by using the propidium iodide and Hoechst 33342 double-staining method. The cells incubated on a Lab-Tek chamber slide system were stained with propidium iodide/Hoechst 33342 (1:1) for 5 min after treatment with CPT-loaded LAMS or free LAMS followed by light irradiation, and then examined with fluorescence microscopy. […] The absorbance of each well was measured at 450 nm with a plate reader. Since the absorbance is proportional to the number of viable cells in the medium, the viable cell number was determined by using a previously prepared calibration curve (Dojindo Co.).

Experiment [2] relates to PANC-1 cancer cells. Put plainly: Photocontrolled staining of cell nuclei by released PI, confocal microscopy. The following applies: free PI not loaded into the particles. The class given is cell-based, human. On the procedure: FIGS. 8A-8C show confocal microscope images of the photocontrolled staining of the nuclei of PANC-1 cancer cells. Plasma membrane impermeable propidium iodide (PI) molecules were loaded in the pores of LAMS and the dye loaded particles were incubated with the cells for 3 hours in the dark. The cells were then exposed to the activation beam for 1 to 10 min. After further incubation in the dark for 10 min, the cells were examined with confocal microscopy ([…]) FIG. 8A. Cells incubated with the PI-loaded LAMS and illuminated for 0 (a), 1 (b), 3 (c), or 5 min (f) under a constant ˜0.2 W/cm^2, 413 nm light or with different light intensities (˜0.01 (d) or ˜0.1 W/cm^2 (e) for 5 min at a 413 nm light). FIG. 8B. PANC-1 cells incubated with the PI-loaded LAMS (g), free PI molecules (h), or empty LAMS (i) were kept in the dark and exposed to a 413 nm light. FIG. 8C. Cells incubated with the PI-loaded LAMS were illuminated with ˜0.2 W/cm^2, 676 nm light for 0 (j), 1 (k) or 5 min (l). Scale bar: 30 μm.
Based on the successful operation of the impeller in water, in vitro studies were carried out on two human cancer cell lines (PANC-1 and SW480). To detect the photo-responsive behavior of the impellers inside of cells, a membrane-impermeable dye, PI was chosen as the fluorescent probe molecule and loaded into the particles following the same procedure as that used for the Rhodamine B loading. […]

As to `CC[C@@]1(O)C(=O)OCc2c1cc1n(c2=O)Cc2cc3ccccc3nc2-1` [CPT, camptothecin], in the experiment with PANC-1 cancer cells [1], the cell killing entry is “did not kill the cells”.

`CC[N+](C)(CC)CCC[n+]1c(-c2ccccc2)c2cc(N)ccc2c2ccc(N)cc21.[I-].[I-]` [PI, propidium iodide]: the “cell staining (cell entry)” value in the experiment with PANC-1 cancer cells [2] is “cell staining did not occur”.
